Reference: ChEMBL document CHEMBL1201862, “PubChem BioAssay data set” (2004)
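Assay format: 96-well plates, 48-hour exposure. GI50 marks 50% less growth.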 Calls of active or inactive are those of the source. Cut-off read from the data, not from the text of the source: active = GI50 up to about 1.1 µM and inactive = higher.

Key:
Assay in all cases: NCI-60 cell line screen, 48 h
UACC-257 = tested on: UACC-257
SF-295 = tested on: SF-295
OVCAR-4 = tested on: OVCAR-4
HCT-15 = tested on: HCT-15
DLD-1 = tested on: DLD-1
SW-620 = tested on: SW-620
KM12 = tested on: KM12
HL-60 = tested on: HL-60
TK-10 = tested on: TK-10
K562 = tested on: K562
A549 = tested on: A549
NCI-H23 = tested on: NCI-H23
SF-268 = tested on: SF-268
OVCAR-5 = tested on: OVCAR-5
SK-OV-3 = tested on: SK-OV-3
HCC 2998 = tested on: HCC 2998
HCT-116 = tested on: HCT-116
ACHN = tested on: ACHN
SNB-75 = tested on: SNB-75
SNB-78 = tested on: SNB-78
HOP-62 = tested on: HOP-62
LXFL 529 = tested on: LXFL 529
UO-31 = tested on: UO-31
HOP-92 = tested on: HOP-92
NCI-H522 = tested on: NCI-H522
CCRF-CEM = tested on: CCRF-CEM
RXF 393 = tested on: RXF 393
UACC-62 = tested on: UACC-62
IGROV-1 = tested on: IGROV-1
NCI-H460 = tested on: NCI-H460
SK-MEL-5 = tested on: SK-MEL-5
SF-539 = tested on: SF-539
NCI-H226 = tested on: NCI-H226
HT-29 = tested on: HT-29
OVCAR-8 = tested on: OVCAR-8
HOP-18 = tested on: HOP-18
786-0 = tested on: 786-0
CAKI-1 = tested on: CAKI-1
M14 = tested on: M14
SK-MEL-2 = tested on: SK-MEL-2
OVCAR-3 = tested on: OVCAR-3
M19-MEL = tested on: M19-MEL
SN12C = tested on: SN12C
U-251 = tested on: U-251
KM-20L2 = tested on: KM-20L2
SR = tested on: SR
LOX IMVI = tested on: LOX IMVI
SNB-19 = tested on: SNB-19
RPMI-8226 = tested on: RPMI-8226
EKVX = tested on: EKVX
A498 = tested on: A498
Malme-3M = tested on: Malme-3M
DMS-114 = tested on: DMS-114
MOLT-4 = tested on: MOLT-4
SK-MEL-28 = tested on: SK-MEL-28
COLO 205 = tested on: COLO 205
DMS-273 = tested on: DMS-273

O=C(N/N=C(/CCN1CCCC1)CC(c1ccccc1)c1c(O)c2ccccc2oc1=O)c1ccncc1 (stereo unspecified)
GI50 (UACC-257): > 100 µM (inactive) | GI50 (SF-295): > 100 µM (inactive) | GI50 (OVCAR-4): > 100 µM (inactive) | GI50 (HCT-15): > 100 µM | GI50 (DLD-1): > 100 µM (inactive) | GI50 (SW-620): 41.2 µM (inactive) | GI50 (KM12): > 100 µM (inactive) | GI50 (HL-60): 30 µM (inactive) | GI50 (TK-10): > 100 µM (inactive) | GI50 (K562): 87.1 µM (inactive) | GI50 (A549): > 100 µM (inactive) | GI50 (NCI-H23): > 100 µM (inactive) | GI50 (SF-268): > 100 µM (inactive) | GI50 (OVCAR-5): > 100 µM (inactive) | GI50 (SK-OV-3): > 100 µM (inactive) | GI50 (HCC 2998): 0.171 µM (active) | GI50 (HCT-116): > 100 µM (inactive) | GI50 (ACHN): > 100 µM (inactive) | GI50 (SNB-75): > 100 µM (inactive) | GI50 (SNB-78): > 100 µM (inactive) | GI50 (HOP-62): > 100 µM (inactive) | GI50 (LXFL 529): > 100 µM (inactive) | GI50 (UO-31): > 100 µM (inactive) | GI50 (HOP-92): 35 µM (inactive) | GI50 (NCI-H522): 72.6 µM (inactive) | GI50 (CCRF-CEM): 50.8 µM (inactive) | GI50 (RXF 393): > 100 µM (inactive) | GI50 (UACC-62): > 100 µM (inactive) | GI50 (IGROV-1): > 100 µM (inactive) | GI50 (NCI-H460): > 100 µM (inactive) | GI50 (SK-MEL-5): > 100 µM (inactive) | GI50 (SF-539): > 100 µM (inactive) | GI50 (NCI-H226): > 100 µM (inactive) | GI50 (HT-29): > 100 µM (inactive) | GI50 (OVCAR-8): > 100 µM (inactive) | GI50 (HOP-18): > 100 µM (inactive) | GI50 (786-0): > 100 µM (inactive) | GI50 (CAKI-1): > 100 µM (inactive) | GI50 (M14): 94.6 µM (inactive) | GI50 (SK-MEL-2): > 100 µM (inactive) | GI50 (OVCAR-3): > 100 µM (inactive) | GI50 (M19-MEL): 95.1 µM (inactive) | GI50 (SN12C): > 100 µM (inactive) | GI50 (U-251): > 100 µM (inactive) | GI50 (KM-20L2): > 100 µM (inactive) | GI50 (SR): 15.4 µM (inactive) | GI50 (LOX IMVI): > 100 µM (inactive) | GI50 (SNB-19): > 100 µM (inactive) | GI50 (RPMI-8226): 45.1 µM (inactive) | GI50 (EKVX): > 100 µM (inactive) | GI50 (A498): > 100 µM (inactive) | GI50 (Malme-3M): 93.3 µM (inactive)

CC(=O)NC1=C(C)C(=O)c2c(nc3n2CCC3OC(=O)c2ccccc2)C1=O (stereo unspecified)
GI50 (DMS-114): 0.805 µM (active) | GI50 (UACC-257): 1.54 µM (inactive) | GI50 (SF-295): 1.51 µM (inactive) | GI50 (MOLT-4): 1.99 µM (inactive) | GI50 (SK-MEL-28): 1.86 µM (inactive) | GI50 (OVCAR-4): 1.52 µM (inactive) | GI50 (DLD-1): 1.81 µM (inactive) | GI50 (SW-620): 1.79 µM (inactive) | GI50 (KM12): 2.61 µM (inactive) | GI50 (HL-60): 1.92 µM (inactive) | GI50 (TK-10): 6.43 µM (inactive) | GI50 (K562): 2.32 µM (inactive) | GI50 (A549): 1.7 µM (inactive) | GI50 (NCI-H23): 1.67 µM (inactive) | GI50 (SF-268): 2.21 µM (inactive) | GI50 (OVCAR-5): 1.99 µM (inactive) | GI50 (SK-OV-3): 2.03 µM (inactive) | GI50 (HCC 2998): 4.81 µM (inactive) | GI50 (HCT-116): 1.94 µM (inactive) | GI50 (COLO 205): 4 µM (inactive) | GI50 (ACHN): 3.04 µM (inactive) | GI50 (SNB-75): 3.58 µM (inactive) | GI50 (SNB-78): 2.71 µM (inactive) | GI50 (HOP-62): 2.34 µM (inactive) | GI50 (LXFL 529): 1.56 µM (inactive) | GI50 (UO-31): 2.82 µM (inactive) | GI50 (HOP-92): 1.9 µM (inactive) | GI50 (NCI-H522): 2.04 µM (inactive) | GI50 (CCRF-CEM): 1.19 µM (inactive) | GI50 (RXF 393): 3.79 µM (inactive) | GI50 (UACC-62): 1.92 µM (inactive) | GI50 (IGROV-1): 2.08 µM (inactive) | GI50 (NCI-H460): 2.37 µM (inactive) | GI50 (SK-MEL-5): 1.75 µM (inactive) | GI50 (SF-539): 1.93 µM (inactive) | GI50 (NCI-H226): 2.05 µM (inactive) | GI50 (HT-29): 0.514 µM (active) | GI50 (OVCAR-8): 1.3 µM (inactive) | GI50 (786-0): 4.3 µM (inactive) | GI50 (CAKI-1): 2.6 µM (inactive) | GI50 (DMS-273): 2.07 µM (inactive) | GI50 (M14): 1.98 µM (inactive) | GI50 (SK-MEL-2): 1.7 µM (inactive) | GI50 (OVCAR-3): 0.223 µM (active) | GI50 (M19-MEL): 1.69 µM (inactive) | GI50 (SN12C): 1.79 µM (inactive) | GI50 (U-251): 1.89 µM (inactive) | GI50 (SR): 2.37 µM (inactive) | GI50 (LOX IMVI): 1.51 µM (inactive) | GI50 (SNB-19): 2.69 µM (inactive) | GI50 (RPMI-8226): 2.04 µM (inactive) | GI50 (EKVX): 1.63 µM (inactive) | GI50 (A498): 12.7 µM (inactive) | GI50 (Malme-3M): 1.64 µM (inactive)
